Assay results from patent EP0974573A1, “PHENYLPROPENONE COMPOUNDS AND MEDICINES CONTAINING THE SAME” (Kabushiki Kaisha Yakult Honsha, priority 1997, dated 1998).

Columns and labels:
[1] = system: J774.1 strain, an established cell line of mouse macrophage; assay: Inhibitory effects on the accumulation of cholesterol esters in macrophage (Test 2); type: cell-based; details: J774.1 mouse macrophage, 12 hours incubation with cholesterol liposomes
Experimental: Inhibitory effects on the accumulation of cholesterol esters in macrophage were tested using J774.1 strain, an established cell line of mouse macrophage.
Metabolism of LDL in endothelial cells or smooth muscle cells causes downregulation of the LDL receptor by excess free cholesterol in the cells, but in a macrophage, uptake of modified lDL takes place via a scavenger receptor. As no regulation is applied to this pathway, cholesterol esters progressively accumulate without any limitation.
It was therefore studied whether or not corydaline would inhibit intracellular accumulation of cholesterol esters by having liposomes, which were formed of […] cholesterol and phosphatidylcholine, uptaken in macrophage cells and then causing them to act on acyl-CoA:cholesterol acyltransferase which existed on rough-surfaced endoplasmic reticula.
The macrophage cells were incubated for 2 days under 5% CO2 on an RPMI 1640 medium (product of NISSUI PHARMACEUTICAL CO., LTD.) which had been added with 10% fetal bovine serum, penicilin (50 U/mℓ) and streptomycin (50 µg/mℓ). Trypsinization was then conducted, and cells attached to the bottom of each well were peeled off and formulated into a cell suspension. The cells were washed with a fresh supply of the above-described culture medium, and the cell solution was then seeded at 2 x 10^6 cells/mℓ on a 24-well multiple well plate ("25820-24", product of CORNING INC.). After incubation at 37°C under 5% CO2 for 37 hours, the culture medium was replaced with a fresh supply of the above-described culture medium and, after a 0.3 M glucose solution (40 µℓ) with cholesterol [80 µg; containing 0.4 µCi of (^3H)-cholesterol] and phosphatidylcholine (160 µg) contained therein and a methanol solution (10 µℓ)with a test sample dissolved therein were added, incubation was conducted for 12 hours. These procedures were carried out aseptically.
After completion of the incubation, cells attached to each bottom were washed 5 times with a serum-free RPMI 1640 medium by a graduated pipet, and isopropanol (1 mℓ) was added to extract intracellular cholesterol and formed cholesterol esters. The extract was coated in its entirety on a silica gel thin layer chromatography ("Art 5553", product of MERCK & Co., INC.) and subsequent to development with a 80:20:2 mixture of hexane, ethyl ether and formic acid, autoradiography was performed.
A section, which contained ^3H-labelled cholesterol esters and cholesterol, was cut off. Its radioactivity was measured by a liquid scintillation counter and compared with a control, whereby a cholesterol ester accumulation inhibition rate was determined.

rat-derived ACAT = assay: Inhibitory effects on rat-derived ACAT (Test 1); type: biochemical; details: crude enzyme from microsome protein fractions of rat liver, (14C)-oleoyl-CoA substrate, 37°C
Experimental: To test effects on ACAT, a reaction was conducted in vitro to form (^14C)-cholesteryl oleate from endogeneous cholesterol in the presence of (^14C)-oleoyl-CoA as a substrate by using a crude enzyme prepared from microzome protein fractions of a rat liver.
The reaction mixture had the following composition: 20 µℓ of microsome protein (1.83 mg/mℓ), 20 µℓ of (^14C)-oleoyl-CoA (5 µCi/mℓ, BSA: 96 nmol/mℓ), 106 µℓ of 100 mM phosphate buffer (containing 5 mM of dithiothreitol, pH 7.4) and a sample dissolved in 4 µℓ of methanol or dimethyl sulfoxide; 150 µℓ in total.
The reaction was conducted at 37°C. After an elapse of a predetermined reaction time (18 minutes in general), a 2:1 mixture of chloroform and methanol (5.65 mℓ) was added to terminate the reaction. A 0.04 N aquous solution of hydrochloric acid (0.98 mℓ) and as a carrier, cholesteryl oleate were added, followed by extraction for 20 minutes on a shaking apparatus. The mixture was then allowed to stand overnight in a cold dark place. On the following day, the separated lower chloroform layer was extracted in its entirety and was dried under a nitrogen gas stream. The remaining upper layer was added with the lower layer (5.65 mℓ) of the Folch's partition solution, and was extracted again. After the mixture was allowed to stand overnight in a dark place, the lower layer was drawn in its entirety. This lower layer was combined with the lower chloroform layer fraction, which had already been dried to solid, and the mixture was then dried to solid.
The solid was then dissolved in chlorofrom (200 µℓ), and the solution was coated in its entirety on a G60 plate (aluminum sheet) for silica gel thin layer chromatography. After the solid was developedover 10 cm with a 10:190 mixture of diethyl ether and petroleum ether, autoradiography was conducted and the formation of (^14C)-colesteryl oleate was confirmed. This section was then cut off. The radioactivity of each sample was measured by subjecting it to liquid scintillation counting for 5 minutes in toluene or was measured for 30 minutes by a "Betascope" (manufactured by BETA-GEN INC. The results so obtained are shown in Table 1. Table 1

| IC50 ([1]; Mus musculus, J774.1, 12 h) [nM] | IC50 (rat-derived ACAT) [nM] | Compound | IC50 [1] [nM] |
| --- | --- | --- | --- |
| 430 | 60 | COc1cc(/C=C/C(=O)Nc2cc(C(F)(F)F)cc(C(F)(F)F)c2)cc(OC)c1OCc1ccccc1 [Compound 83, N-(3,5-bistrifluoromethylphenyl)-(2E)-3-(3,5-dimethoxy-4-benzyloxyphenyl)-2-propenamide] |  |
| 31 |  | COc1cc(/C=C/C(=O)Nc2ccc(OC(C)C)cc2)cc(OC)c1OCc1ccccc1 [Compound 73, N-(4-isopropyloxyphenyl)-(2E)-3-(3,5-dimethoxy-4-benzyloxyphenyl)-2-propenamide] |  |
| 150 |  | COc1cc(/C=C/C(=O)Nc2ccc(Cl)c(Cl)c2)cc(OC)c1OCc1ccccc1 [Compound 81, N-(3,4-dichlorophenyl)-(2E)-3-(3,5-dimethoxy-4-benzyloxyphenyl)-2-propenamide] |  |
| 490 |  | COc1cc(/C=C/C(=O)Nc2ccccc2)cc(OC)c1OCc1ccccc1 [Compound 76, N-phenyl-(2E)-3-(3,5-dimethoxy-4-benzyloxyphenyl)-2-propenamide] |  |
| 900 | 47 | COc1cc(/C=C/C(=O)Nc2c(C)cccc2C)cc(OC)c1OCc1ccccc1 [Compound 66, N-(2,6-dimethylphenyl)-(2E)-3-(3,5-dimethoxy-4-benzyloxyphenyl)-2-propenamide] |  |
| 790 | 72 | COc1cc(/C=C/C(=O)Nc2c(C(C)C)cccc2C(C)C)cc(OC)c1OCc1ccccc1 [Compound 68, N-(2,6-diisopropylphenyl)-(2E)-3-(3,5-dimethoxy-4-benzyloxyphenyl)-2-propenamide] |  |
| 26 |  | COc1cc(/C=C/C(=O)Nc2ccc(Oc3ccccc3)cc2)cc(OC)c1OCc1ccccc1 [Compound 85, N-(4-phenoxyphenyl)-(2E)-3-(3,5-dimethoxy-4-benzyloxyphenyl)-2-propenamide] |  |
| 170 | 35 | COc1cc(/C=C/C(=O)Nc2ccc(Cl)cc2)cc(OC)c1OCc1ccccc1 [Compound 78, N-(4-chlorophenyl)-(2E)-3-(3,5-dimethoxy-4-benzyloxyphenyl)-2-propenamide] |  |
| 520 | 52 | COc1cc(/C=C/C(=O)Nc2ccc(C)cc2C)cc(OC)c1OCc1ccccc1 [Compound 63, N-(2,4-dimethylphenyl)-(2E)-3-(3,5-dimethoxy-4-benzyloxyphenyl)-2-propenamide] |  |
| 900 | 35 | COc1cc(/C=C/C(=O)Nc2cccc(C)c2C)cc(OC)c1OCc1ccccc1 [Compound 64, N-(2,3-dimethylphenyl)-(2E)-3-(3,5-dimethoxy-4-benzyloxyphenyl)-2-propenamide] |  |
| 78 |  | COc1cc(/C=C/C(=O)Nc2ccc(Br)cc2)cc(OC)c1OCc1ccccc1 [Compound 79, N-(4-bromophenyl)-(2E)-3-(3,5-dimethoxy-4-benzyloxyphenyl)-2-propenamide] |  |
| 30 | 42 | COc1cc(/C=C/C(=O)Nc2ccc(C(F)(F)F)cc2)cc(OC)c1OCc1ccccc1 [Compound 82, N-(4-trifluoromethylphenyl)-(2E)-3-(3,5-dimethoxy-4-benzyloxyphenyl)-2-propenamide] |  |
| 470 | 76 | COc1cc(/C=C/C(=O)Nc2ccc(F)cc2)cc(OC)c1OCc1ccccc1 [Compound 77, N-(4-fluorophenyl)-(2E)-3-(3,5-dimethoxy-4-benzyloxyphenyl)-2-propenamide] |  |
| 870 |  | COc1cc(/C=C/C(=O)NCCCc2ccccc2)cc(OC)c1OCc1ccccc1 [Compound 60, N-(3-phenyl)propyl-(2E)-3-(3,5-dimethoxy-4-benzyloxyphenyl)-2-propenamide] |  |
| 870 |  | COc1cc(/C=C/C(=O)Nc2c(C)cc(C)cc2C)cc(OC)c1OCc1ccccc1 [Compound 67, N-(2,4,6-trimethylphenyl)-(2E)-3-(3,5-dimethoxy-4-benzyloxyphenyl)-2-propenamide] |  |
| 250 | 70 | CCCCCCCCCCCCOc1c(OC)cc(/C=C/C(=O)NN2CCN(c3ccc(C)cc3C)CC2)cc1OC [Compound 19, N-[4-(2,4-dimethylphenyl)-1,4-diazacyclohexyl]-(2E)-3-(3,5-dimethoxy-4-dodecyloxyphenyl) -2-propenamide] |  |
| 840 |  | COc1cc(/C=C/C(=O)Nc2ccccc2C(C)(C)C)cc(OC)c1OCc1ccccc1 [Compound 70, N-(2-tert-butylphenyl)-(2E)-3-(3,5-dimethoxy-4-benzyloxyphenyl)-2-propenamide] |  |
| 28 |  | COc1cc(/C=C/C(=O)Nc2ccc(C(C)(C)C)cc2)cc(OC)c1OCc1ccccc1 [Compound 69, N-(4-tert-butylphenyl)-(2E)-3-(3,5-dimethoxy-4-benzyloxyphenyl)-2-propenamide] |  |
| 120 | 37 | COc1cc(/C=C/C(=O)Nc2ccc(C)cc2)cc(OC)c1OCc1ccccc1 [Compound 71, N-(4-methylphenyl)-(2E)-3-(3,5-dimethoxy-4-benzyloxyphenyl)-2-propenamide] |  |
| 840 |  | COc1cc(/C=C/C(=O)NCCCCc2ccccc2)cc(OC)c1OCc1ccccc1 [Compound 61, N-(4-phenyl)butyl-(2E)-3-(3,5-dimethoxy-4-benzyloxyphenyl)-2-propenamide] |  |
|  |  | N-[4-(2,4-dimethylphenyl)-1,4-diazacyclohexyl]-(2E)-3-[3,5-dimethoxy-4-(3-phenyl)propyloxy]-2-propenamide [Compound 23] | 32 |
| 43 |  | COc1cc(/C=C/C(=O)Nc2ccc(I)cc2)cc(OC)c1OCc1ccccc1 [Compound 80, N-(4-iodophenyl)-(2E)-3-(3,5-dimethoxy-4-benzyloxyphenyl)-2-propenamide] |  |
|  |  | COc1cc(/C=C/C(=O)NC2CCN(Cc3ccccc3)CC2)cc(OC)c1OCc1ccccc1 [Compound 62, N-[4-(1-benzyl)piperidino]-(2E)-3-(3,5-dimethoxy-4-benzyloxyphenyl)-2-propenamide] | 840 |
| 930 |  | COc1cc(/C=C/C(=O)NCc2ccccc2)cc(OC)c1OCc1ccccc1 [Compound 58, N-benzyl-(2E)-3-(3,5-dimethoxy-4-benzyloxyphenyl)-2-propenamide] |  |
| 620 |  | COc1cc(/C=C/C(=O)NCCc2ccccc2)cc(OC)c1OCc1ccccc1 [Compound 59, N-(2-phenyl)ethyl-(2E)-3-(3,5-dimethoxy-4-benzyloxyphenyl)-2-propenamide] |  |

| Compound | IC50 ([1]; Mus musculus, J774.1, 12 h) [nM] | IC50 (rat-derived ACAT) [nM] | IC50 [1] [nM] |
| --- | --- | --- | --- |
| COc1cc(/C=C/C(=O)Nc2ccc(N(C)C)cc2)cc(OC)c1OCc1ccccc1 [Compound 74, N-[4-(N',N^'-dimethylamino)phenyl]-(2E)-3-(3,5-dimethoxy-4-benzyloxyphenyl)-2-propenamide] |  | 90 | 990 |
| COc1cc(/C=C/C(=O)N2CCN(c3ccc(C)c(C)c3)CC2)cc(OC)c1OCc1ccccc1 [Compound 11, N-[4-(3,4-dimethylphenyl)-1,4-diazacyclohexyl]-(2E)-(3,5-dimethoxy-4-benzyloxyphenyl)-2-propenamide] |  | 60 | 189 |
| CCCCCCOc1c(OC)cc(/C=C/C(=O)N2CCN(c3ccc(C)cc3C)CC2)cc1OC [Compound 13] |  | 79 | 200 |
